In the test the target is PD-1/PD-L1 interaction (PD-1-Ig / PD-L1-His) (Homo sapiens (Human), UniProt Q9NZQ7). The test can be described thus: PD-1/PD-L1 Homogenous Time-Resolved Fluorescence (HTRF) binding assay. The note with it: PD-L1-His 10 nM final, PD-1-Ig 20 nM final. The text has this:
The ability of the compounds of the invention to bind to PD-L1 was investigated using a PD-1/PD-L1 Homogenous Time-Resolved Fluorescence (HTRF) binding assay.
The interaction of PD-1 and PD-L1 can be assessed using soluble, purified preparations of the extracellular domains of the two proteins. The PD-1 and PD-L1 protein extracellular domains were expressed as fusion proteins with detection tags, for PD-1, the tag was the Fc portion of Immunoglobulin (PD-1-Ig) and for PD-L1 it was the 6 histidine motif (PD-L1-His). All binding studies were performed in an HTRF assay buffer consisting of dPBS supplemented with 0.1% […] bovine serum albumin and 0.05% (v/v) Tween-20. For the h/PD-L1-His binding assay, inhibitors were pre-incubated with PD-L1-His (10 nM final) for 15 m in 4 μl of assay buffer, followed by addition of PD-1-Ig (20 nM final) in 1 μl of assay buffer and further incubation for 15 m. HTRF detection was achieved using europium crypate-labeled anti-Ig (1 nM final) and allophycocyanin (APC) labeled anti-His (20 nM final). Antibodies were diluted in HTRF detection buffer and 5 μl was dispensed on top of the binding reaction. The reaction mixture was allowed to equilibrate for 30 minutes and the resulting signal (665 nm/620 nm ratio) was obtained using an EnVision fluorometer. Additional binding assays were established between the human proteins PD-1-Ig/PD-L2-His (20 & 5 nM, respectively) and CD80-His/PD-L1-Ig (100 & 10 nM, respectively).
Recombinant Proteins: Human PD-1 (25-167) with a C-terminal human Fc domain of immunoglobulin G (Ig) epitope tag [hPD-1 (25-167)-3S-IG] and human PD-L1 (18-239) with a C-terminal His epitope tag [hPD-L1(18-239)-TVMV-His] were expressed in HEK293T cells and purified sequentially by ProteinA affinity chromatography and size exclusion chromatography. Human PD-L2-His and CD80-His was obtained through commercial sources.
Homogenous Time-Resolved Fluorescence (HTRF) Assays of Binding of Soluble PD-1 to Soluble PD-L1. Soluble PD-1 and soluble PD-L1 refers to proteins with carboxyl-end truncations that remove the transmembrane-spanning regions and are fused to heterologous sequences, specifically the Fc portion of the human immunoglobuling G sequence (Ig) or the hexahistidine epitope tag (His). All binding studies were performed in an HTRF assay buffer consisting of dPBS supplemented with 0.1% (w/v) bovine serum albumin and 0.05% (v/v) Tween-20. For the PD-1-Ig/PD-L1-His binding assay, inhibitors were pre-incubated with PD-L1-His (10 nM final) for 15 m in 4 μl of assay buffer, followed by addition of PD-1-Ig (20 nM final) in 1 μl of assay buffer and further incubation for 15 m. PD-L1 fusion proteins from either human, cynomologous macaques, mouse, or other species were used. HTRF detection was achieved using europium crypate-labeled anti-Ig monoclonal antibody (1 nM final) and allophycocyanin (APC) labeled anti-His monoclonal antibody (20 nM final). Antibodies were diluted in HTRF detection buffer and 5 μl was dispensed on top of binding reaction. The reaction was allowed to equilibrate for 30 minutes and signal (665 nm/620 nm ratio) was obtained using an EnVision fluorometer. Additional binding assays were established between PD-1-Ig/PD-L2-His (20 and 5 nM, respectively), CD80-His/PD-L1-Ig (100 and 10 nM, respectively) and CD80-His/CTLA4-Ig (10 and 5 nM, respectively).
Recombinant Proteins. Carboxyl-truncated human PD-1 (amino acids 25-167) with a C-terminal human Ig epitope tag [hPD-1 (25-167)-3S-IG] and human PD-L1 (amino acids 18-239) with a C-terminal His epitope tag [hPD-L1(19-239)-tobacco vein mottling virus protease cleavage site (TVMV)-His] were expressed in HEK293T cells and purified sequentially by recombinant Protein A affinity chromatography and size exclusion chromatography. Human PD-L2-His (Sino Biologicals), CD80-His (Sino Biologicals), CTLA4-Ig (RnD Systems) were all obtained through commercial sources.
For orientation: Time-resolved FRET reads energy transfer from a long-lived donor to a nearby acceptor.

Among the data in patent US20240327389A1, “LACTONE AND LACTAM CONTAINING COMPOUNDS USEFUL AS IMMUNOMODULATORS” (BRISTOL-MYERS SQUIBB COMPANY, priority 2021, published 2024) are IC50 values, retold here.

Some results are limits rather than exact numbers.

Chain of PD-1/PD-L1 interaction (PD-1-Ig / PD-L1-His) (Q9NZQ7 18-239): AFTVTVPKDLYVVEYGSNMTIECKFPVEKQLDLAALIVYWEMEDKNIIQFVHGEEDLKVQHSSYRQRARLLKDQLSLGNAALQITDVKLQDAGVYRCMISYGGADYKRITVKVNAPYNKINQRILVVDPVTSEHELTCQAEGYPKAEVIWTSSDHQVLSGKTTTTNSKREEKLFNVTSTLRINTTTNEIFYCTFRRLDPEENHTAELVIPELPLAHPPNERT

What is called IC50 is the concentration at which inhibition is half-maximal. Higher therefore signals lower potency. `Cc1c(COc2cc(OCc3cncc(C#N)c3)c(CN[C@H]3CCOC3=O)cc2Cl)cccc1-c1cccc(OCC2CCCN(C)C2)c1Cl` (some centres unmarked) [Compound 1001]: the IC50 came to 2.7 nM.

`Cc1c(COc2cc(OCc3cncc(C#N)c3)c(CN[C@@H]3CCOC3=O)cc2Cl)cccc1-c1cccc(OCC2CCCN(C)C2)c1Cl` (some centres unmarked) [Compound 1002] registered an IC50 of 3.5 nM.

Molecule `Cc1c(COc2cc(OCc3cncc(C#N)c3)c(CN[C@H]3COC(=O)C3)cc2Cl)cccc1-c1cccc(OCC2CCCN(C)C2)c1Cl` (some centres unmarked) [Compound 1003] registered an IC50 of 2 nM.

Molecule `Cc1c(COc2cc(OCc3cncc(C#N)c3)c(CN[C@@H]3COC(=O)C3)cc2Cl)cccc1-c1cccc(OCC2CCCN(C)C2)c1Cl` (some centres unmarked) [Compound 1004] came in with an IC50 of 3.1 nM.

In turn, `Cc1c(COc2cc(OCc3cncc(C#N)c3)c(CNC3(C)CCOC3=O)cc2Cl)cccc1-c1cccc(OCC2CCCN(C)C2)c1Cl` (centres unmarked) [Compound 1005] yielded an IC50 of 1.7 nM.

Take `Cc1c(COc2cc(OCc3cncc(C#N)c3)c(CNC3CC(C)OC3=O)cc2Cl)cccc1-c1cccc(OCC2CCCN(C)C2)c1Cl` (centres unmarked) [Compound 1006]: the concentration for half-maximal inhibition (IC50) is 2.6 nM.

As to `Cc1c(COc2cc(OCc3cncc(C#N)c3)c(CNC3CC(C)(C)OC3=O)cc2Cl)cccc1-c1cccc(OCC2CCCN(C)C2)c1Cl` (centres unmarked) [Compound 1007], the IC50 was found to be 3.5 nM.

On to `Cc1c(COc2cc(OCc3cncc(C#N)c3)c(CNC3C(=O)OCC3(C)C)cc2Cl)cccc1-c1cccc(OCC2CCCN(C)C2)c1Cl` (centres unmarked) [Compound 1008], for which the IC50 is 4.4 nM.

Turning to `Cc1c(COc2cc(OCc3cncc(C#N)c3)c(CNC3(C)CC(C)(C)OC3=O)cc2Cl)cccc1-c1cccc(OCC2CCCN(C)C2)c1Cl` (centres unmarked) [Compound 1009], the IC50 was 3 nM.

As for `Cc1c(COc2cc(OCc3cncc(C#N)c3)c(CN[C@H]3CCNC3=O)cc2Cl)cccc1-c1cccc(OCC2CCCN(C)C2)c1Cl` (some centres unmarked) [Compound 1010], the IC50 is 2.3 nM.

`Cc1c(COc2cc(OCc3cncc(C#N)c3)c(CNC3CCNC3=O)cc2Cl)cccc1-c1cccc(OCC2CCCN(C)C2)c1Cl` (centres unmarked) [Compound 1011] showed an IC50 of 1.5 nM.

In turn, `Cc1c(COc2cc(OCc3cncc(C#N)c3)c(CNC3CCN(C)C3=O)cc2Cl)cccc1-c1cccc(OCC2CCCN(C)C2)c1Cl` (centres unmarked) [Compound 1012] came in with an IC50 of 2.9 nM.

Regarding `Cc1c(COc2cc(OCc3cncc(C#N)c3)c(CN[C@H]3CCCNC3=O)cc2Cl)cccc1-c1cccc(OCC2CCCN(C)C2)c1Cl` (some centres unmarked) [Compound 1013], the 50% inhibitory concentration (IC50) is 4 nM.

With `Cc1c(COc2cc(OCc3cncc(C#N)c3)c(CNC3CCCNC3=O)cc2Cl)cccc1-c1cccc(OCC2CCCN(C)C2)c1Cl` (centres unmarked) [Compound 1014], the IC50 stood at 3.2 nM.

For the molecule `Cc1c(COc2cc(OCc3cncc(C#N)c3)c(CNC3CCC(=O)NC3=O)cc2Cl)cccc1-c1cccc(OCC2CCCN(C)C2)c1Cl` (centres unmarked) [Compound 1015], the concentration for half-maximal inhibition (IC50) turned out to be 2.4 nM.

Regarding `Cc1c(COc2cc(OCc3cncc(C#N)c3)c(CNC3(C)CCOC3=O)cc2Cl)cccc1-c1cccc(COc2cc(OCc3cncc(C#N)c3)c(CNC3(C)CCOC3=O)cc2Cl)c1C` (centres unmarked) [Compound 1016], the IC50 is 110 nM.

In turn, `Cc1c(COc2cc(OCc3cncc(C#N)c3)c(CO)cc2Cl)cccc1-c1cccc(COc2cc(OCc3cncc(C#N)c3)c(CNC3(C)CCOC3=O)cc2Cl)c1C` (centres unmarked) [Compound 1017] displayed an IC50 of 112 nM.

Molecule `Cc1c(COc2cc(OCc3cncc(C#N)c3)c(CNC3CCOC3=O)cc2Cl)cccc1-c1cccc(COc2cc(OCc3cncc(C#N)c3)c(CNC3CCOC3=O)cc2Cl)c1C` (centres unmarked) [Compound 1018] showed an IC50 of 15 nM.

For the molecule `Cc1c(COc2cc(OCc3cncc(C#N)c3)c(CN[C@H]3CCOC3=O)cc2Cl)cccc1-c1cccc(COc2cc(OCc3cncc(C#N)c3)c(CN[C@H]3CCOC3=O)cc2Cl)c1C` [Compound 1019], the IC50 was 18.3 nM.

On to `Cc1c(COc2cc(OCc3cncc(C#N)c3)c(CN[C@@H]3CCOC3=O)cc2Cl)cccc1-c1cccc(COc2cc(OCc3cncc(C#N)c3)c(CN[C@@H]3CCOC3=O)cc2Cl)c1C` [Compound 1020], for which the IC50 came out at 7.3 nM.

`Cc1c(COc2cc(OCc3cncc(C#N)c3)c(CNC3CC(=O)OC3(C)C)cc2Cl)cccc1-c1cccc(COc2cc(OCc3cncc(C#N)c3)c(CNC3CC(=O)OC3(C)C)cc2Cl)c1C` (centres unmarked) [Compound 1021] displayed an IC50 of 121 nM.

Consider `Cc1c(COc2cc(OCc3cncc(C#N)c3)c(CNC3CC(C)(C)OC3=O)cc2Cl)cccc1-c1cccc(COc2cc(OCc3cncc(C#N)c3)c(CNC3CC(C)(C)OC3=O)cc2Cl)c1C` (centres unmarked) [Compound 1022], for which the IC50 amounted to 145 nM.

In turn, `Cc1c(COc2cc(OCc3cncc(C#N)c3)c(CNC3C(=O)OCC3(C)C)cc2Cl)cccc1-c1cccc(COc2cc(OCc3cncc(C#N)c3)c(CNC3C(=O)OCC3(C)C)cc2Cl)c1C` (centres unmarked) [Compound 1023] showed an IC50 of over 10000 nM.

On to `Cc1c(COc2cc(OCc3cncc(C#N)c3)c(CNC3CC(C)OC3=O)cc2Cl)cccc1-c1cccc(COc2cc(OCc3cncc(C#N)c3)c(CNC3CC(C)OC3=O)cc2Cl)c1C` (centres unmarked) [Compound 1024], for which the IC50 was found to be 21.4 nM.

The molecule `Cc1c(COc2cc(OCc3cncc(C#N)c3)c(CNC3(C)CC(C)(C)OC3=O)cc2Cl)cccc1-c1cccc(COc2cc(OCc3cncc(C#N)c3)c(CNC3(C)CC(C)(C)OC3=O)cc2Cl)c1C` (centres unmarked) [Compound 1025] yielded a concentration for half-maximal inhibition (IC50) of over 10000 nM.

On to `N#Cc1cncc(COc2cc(OCc3cccc(-c4cccc(COc5cc(OCc6cncc(C#N)c6)c(CN[C@H]6CCOC6=O)cc5Cl)c4Cl)c3Cl)c(Cl)cc2CN[C@H]2CCOC2=O)c1` [Compound 1026], for which the IC50 amounted to 10.4 nM.

Regarding `Cc1c(COc2cc(OCc3cncc(C#N)c3)c(CNC3CCNC3=O)cc2Cl)cccc1-c1cccc(OCC2CCCN(C)C2)c1Cl` (centres unmarked) [Compound 1027], the IC50 amounted to 2.5 nM.

Regarding `Cc1c(COc2cc(O)c(CN[C@H]3COC(=O)C3)cc2Cl)cccc1-c1cccc(OCC2CCCN(C)C2)c1Cl` (some centres unmarked) [Compound 1028], the IC50 is 44.5 nM.

As for `Cc1c(COc2cc(O)c(CNC3(C)CCOC3=O)cc2Cl)cccc1-c1cccc(OCC2CCCN(C)C2)c1Cl` (centres unmarked) [Compound 1029], the half-maximal inhibitory concentration (IC50) amounted to 132 nM.

Regarding `Cc1c(COc2cc(O)c(CNC3CC(C)OC3=O)cc2Cl)cccc1-c1cccc(OCC2CCCN(C)C2)c1Cl` (centres unmarked) [Compound 1030], the half-inhibitory concentration (IC50) was found to be 80.1 nM.

Molecule `Cc1c(COc2cc(O)c(CN[C@H]3CCOC3=O)cc2Cl)cccc1-c1cccc(OCC2CCCN(C)C2)c1Cl` (some centres unmarked) [Compound 1031] had an IC50 of 39.3 nM.

`COc1cc(OCc2cccc(-c3cccc(OCC4CCCN(C)C4)c3Cl)c2C)c(Cl)cc1CNC1CCOC1=O` (centres unmarked) [Compound 1032] displayed an IC50 of 7.8 nM.

The molecule `COc1cc(OCc2cccc(-c3cccc(OCC4CCCN(C)C4)c3Cl)c2C)c(Cl)cc1CNC1CC(C)OC1=O` (centres unmarked) [Compound 1033] showed an IC50 of 11.5 nM.

For the molecule `COc1cc(OCc2cccc(-c3cccc(OCC4CCCN(C)C4)c3Cl)c2C)c(Cl)cc1CNC1CC(C)(C)OC1=O` (centres unmarked) [Compound 1034], the concentration for half-maximal inhibition (IC50) came to 7.4 nM.

`COc1cc(OCc2cccc(-c3cccc(OCC4CCCN(C)C4)c3Cl)c2C)c(Cl)cc1CNC1CCCNC1=O` (centres unmarked) [Compound 1035] yielded an IC50 of 2.1 nM.

Turning to `COc1cc(OCc2cccc(-c3cccc(OCC4CCCN(C)C4)c3Cl)c2C)c(Cl)cc1CNC1(C)CCOC1=O` (centres unmarked) [Compound 1036], the IC50 was determined as 7.3 nM.

Turning to `COc1cc(OCc2cccc(-c3cccc(OCC4CCCN(C)C4)c3Cl)c2C)c(Cl)cc1CNC1C(=O)OCC1(C)C` (centres unmarked) [Compound 1037], the IC50 was found to be 136 nM.

On to `COc1cc(OCc2cccc(-c3cccc(OCC4CCCN(C)C4)c3Cl)c2C)c(Cl)cc1CNC1CCNC1=O` (centres unmarked) [Compound 1038], for which the IC50 worked out at 4.8 nM.
